What was measured:
[1] = target: T1, Tyrosine-protein phosphatase non-receptor type 1 (Homo sapiens, UniProt P18031); test: Inhibition of Protein-tyrosine phosphatase 1B
T1 sequence (P18031 whole entry): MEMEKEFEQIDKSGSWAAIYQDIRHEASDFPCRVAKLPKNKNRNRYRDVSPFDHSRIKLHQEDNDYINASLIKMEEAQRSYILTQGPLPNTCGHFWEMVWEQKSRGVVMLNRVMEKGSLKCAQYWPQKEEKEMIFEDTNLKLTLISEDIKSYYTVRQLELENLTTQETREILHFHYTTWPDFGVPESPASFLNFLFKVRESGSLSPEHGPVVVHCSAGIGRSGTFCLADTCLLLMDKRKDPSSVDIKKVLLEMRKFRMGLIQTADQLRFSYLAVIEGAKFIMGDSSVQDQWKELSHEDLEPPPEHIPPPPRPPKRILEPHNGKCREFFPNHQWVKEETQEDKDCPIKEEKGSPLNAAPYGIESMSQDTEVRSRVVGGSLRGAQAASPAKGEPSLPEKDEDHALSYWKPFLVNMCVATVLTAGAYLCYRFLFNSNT

[2] = system: Caco-2; test: Papp in Caco-2 permeability assay.; assay type: functional, cell-based; details: Homo sapiens

Compound	Ki [1] [µM]	Papp [2] [×10⁻⁶ cm/s]
COC(=O)c1c(O)cccc1OCCCCNC(=O)[C@H](Cc1ccc(OCC(=O)O)cc1)NC(=O)OC(C)(C)C		10
COC(=O)c1c(O)cccc1OCCCCNC(=O)[C@H](Cc1ccc(NC(=O)C(=O)O)cc1)NC(=O)OC(C)(C)C		< 1
CCc1cc(CC(NC(C)=O)C(=O)NCCCCOc2cccc(O)c2C(=O)OC)ccc1N(C(=O)C(=O)O)c1ccccc1C(=O)O (stereo not given)		< 1
COC(=O)c1c(O)cccc1OCCCCNC(=O)[C@H](Cc1ccc(OCC(=O)O)c(O)c1)NC(C)=O		> 10
COC(=O)c1c(O)cccc1OCCCCNC(=O)[C@H](Cc1ccc(NC(=O)c2ncccc2O)cc1)NC(C)=O	> 200	
COC(=O)c1c(O)cccc1OCCCCNC(=O)[C@H](Cc1ccc(OCC(=O)O)c(N)c1)NC(C)=O	> 200	
COC(=O)c1c(O)cccc1OCCCCNC(=O)[C@H](Cc1ccc(OC(CO)C(=O)O)cc1)NC(=O)OC(C)(C)C (stereo not given in full)	> 200	

Further lines, with some results ahead:

Ki [1] [µM]	Compound	Papp [2] [×10⁻⁶ cm/s]
> 200	COC(=O)c1c(O)cccc1OCCCCNC(=O)[C@H](Cc1ccc(NC(=O)CO)cc1)NC(C)=O	
> 200	COC(=O)c1c(O)cccc1OCCCCNC(=O)[C@H](Cc1ccc(/C=C\C(=O)O)cc1)NC(=O)OC(C)(C)C	
2	CCCCC(C)NC(=O)[C@H](Cc1ccc(OCC(=O)O)c(C2N=NN=N2)c1)NC(=O)[C@H](Cc1ccccc1)NC(=O)OC(C)(C)C (stereo not given in full)	
> 200	COC(=O)c1c(O)cccc1OCCCCNC(=O)[C@H](Cc1ccc(NS(=O)(=O)C(F)(F)F)cc1)NC(C)=O	
2.2	COC(=O)c1c(O)cccc1OCCCCNC(=O)[C@H](Cc1ccc(OCC(=O)O)c(C(=O)O)c1)NC(C)=O	
> 200	COC(=O)c1c(O)cccc1OCCCCNC(=O)[C@H](Cc1ccc(NC(=O)C(F)(F)F)cc1)NC(C)=O	
> 200	COC(=O)c1c(O)cccc1OCCCCNC(=O)[C@H](Cc1ccc(NCC(=O)O)cc1)NC(=O)OC(C)(C)C	
6.1	COC(=O)c1c(O)cccc1OCCCCNC(=O)[C@H](Cc1ccc(NC(=O)C(=O)O)cc1)NC(C)=O	
